{
  "source": "patent US8884030B2",
  "about": "“Inhibitors of Flaviviridae viruses” (priority 2010, dated 2014)",
  "data": [
    {"test_system": "human hepatoma Huh-7 cell line harboring a HCV replicon", "assay": "HCV replicon assay (inhibition of viral replication, luciferase)", "assay_type": "cell-based", "details": "Hepatitis C virus, 72 h; 2 μM; Huh-7 HCV replicon cells, 3 days incubation; inhibition of viral replication; read-out: % inhibition at 2 μM", "outline": "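Huh-7 replicon cells (1600/well) exposed 3 days at 37 °C to 10-point 3-fold dilutions, 0.44% DMSO. Replication measured by Dual-Glo luciferase, background from ITMN-191 wells; cytotoxicity by calcein AM. EC50/CC50 from Hill fit; % inhibition at fixed concentration derivable from fit.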", "units": {"inhibition at 2 µM": "%"}, "values": [
      {"smiles": "CC1CCC(C(=O)N(c2cc(C#CC(C)(C)C)sc2C(=O)O)N(C)C)CC1", "note": "(stereo not shown) [Compound 136, 5-(3,3-dimethyl-but-1-ynyl)-3-[N′-dimethyl-N-(4-methyl-cyclohexanecarbonyl)-hydrazino]-thiophene-2-carboxylic acid]", "inhibition at 2 µM": 98.9},
      {"smiles": "CC(C)(C)C#Cc1cc(N(C(=O)[C@H]2CC[C@H](C)CC2)[C@H]2CCN(C(=O)OC3CCOCC3)C2)c(C(=O)O)s1", "note": "[Compound 41, 3-(S)-[[2-carboxy-5-(3,3-dimethyl-but-1-ynyl)-thiophen-3-yl]-(4-trans-methyl-cyclohexanecarbonyl)-amino]-pyrrolidine-1-carboxylic acid tetrahydro-pyran-4-yl ester]", "inhibition at 2 µM": 99.9},
      {"smiles": "CC1CCC(C(=O)N(c2cc(C#CC(C)(C)C)sc2C(=O)O)C2CCC(NC(=O)OC3CN(C(=O)OC(C)(C)C)C3)CC2)CC1", "note": "(stereo not shown) [Compound 186, 3-{4-[[2-carboxy-5-(3,3-dimethyl-but-1-ynyl)-thiophen-3-yl]-(4-methyl-cyclohexanecarbonyl)-amino]-cyclohexylcarbamoyloxy}-azetidine-1-carboxylic acid tert-butyl ester]", "inhibition at 2 µM": 98.9},
      {"smiles": "CC1CCC(C(=O)N(c2cc(C#CC(C)(C)C)sc2C(=O)O)C2CCC(NN(C)c3nccs3)CC2)CC1", "note": "(stereo not shown) [Compound 81, 5-(3,3-Dimethyl-but-1-ynyl)-3-{(4-methyl-cyclohexanecarbonyl)-[4-(N′-methyl-N′-thiazol-2-yl-hydrazino)-cyclohexyl]-amino}-thiophene-2-carboxylic acid]", "inhibition at 2 µM": 100},
      {"smiles": "CC(C)(C)C#Cc1cc(N(C(=O)[C@H]2CC[C@H](C)CC2)C2CCC(=NOCn3cncn3)CC2)c(C(=O)O)s1", "note": "(stereo partly shown) [Compound 114, 3-(N-(4-((1H-1,2,4-Triazol-1-yl)methoxyimino)cyclohexyl)-4-methylcyclohexanecarboxamido)-5-(3,3-dimethylbut-1-ynyl)thiophene-2-carboxylic acid]", "inhibition at 2 µM": 100},
      {"smiles": "CC1CCC(C(=O)N(c2cc(C#CC(C)(C)C)sc2C(=O)O)N(C)C2CCN(C)CC2)CC1", "note": "(stereo not shown) [Compound 129, 5-(3,3-dimethyl-but-1-ynyl)-3-[N′-methyl-N-(4-methyl-cyclohexanecarbonyl)-N′-(1-methyl-piperidin-4-yl)-hydrazino]-thiophene-2-carboxylic acid]", "inhibition at 2 µM": 100},
      {"smiles": "CC(C)(C)C#Cc1cc(N(C(=O)[C@H]2CC[C@H](C)CC2)[C@H]2CCN(C(=O)O[C@@H]3CNC(=O)C3)C2)c(C(=O)O)s1", "note": "[Compound 33, 3-(S)-[[2-carboxy-5-(3,3-dimethyl-but-1-ynyl)-thiophen-3-yl]-(4-trans-methyl-cyclohexanecarbonyl)-amino]-pyrrolidine-1-carboxylic acid 5-oxo-pyrrolidin-3-(S)-yl ester]", "inhibition at 2 µM": 96.2},
      {"smiles": "CC(C)(C)C#Cc1cc(N(C(=O)[C@H]2CC[C@H](C)CC2)[C@H]2CCN(C(=O)OC3CCNCC3)C2)c(C(=O)O)s1", "note": "[Compound 40, 3-(S)-[[2-carboxy-5-(3,3-dimethyl-but-1-ynyl)-thiophen-3-yl]-(4-trans-methyl-cyclohexanecarbonyl)-amino]-pyrrolidine-1-carboxylic acid piperidin-4-yl ester]", "inhibition at 2 µM": 98.6},
      {"smiles": "CC(C)(C)C#Cc1cc(N(C(=O)[C@H]2CC[C@H](C)CC2)[C@H]2CCN(C(=O)O[C@H]3CCNC3=O)C2)c(C(=O)O)s1", "note": "[Compound 43, 3-(S)-[[2-carboxy-5-(3,3-dimethyl-but-1-ynyl)-thiophen-3-yl]-(4-trans-methyl-cyclohexanecarbonyl)-amino]-pyrrolidine-1-carboxylic acid 2-oxo-pyrrolidin-3-(R)-yl ester]", "inhibition at 2 µM": 96.2},
      {"smiles": "CC(C)(C)C#Cc1cc(N(C(=O)[C@H]2CC[C@H](C)CC2)C2CCC(=NOCC(=O)O)CC2)c(C(=O)O)s1", "note": "(stereo partly shown) [Compound 115, 3-(N-(4-(Carboxymethoxyimino)cyclohexyl)-4-methylcyclohexanecarboxamido)-5-(3,3-dimethylbut-1-ynyl)thiophene-2-carboxylic acid]", "inhibition at 2 µM": 99.8},
      {"smiles": "CC1CCC(C(=O)N(c2cc(C#CC(C)(C)C)sc2C(=O)O)N(C)C2CCC3(CC2)OCCO3)CC1", "note": "(stereo not shown) [Compound 122]", "inhibition at 2 µM": 99.7},
      {"smiles": "CC(C)(C)C#Cc1cc(N(C(=O)[C@H]2CC[C@H](C)CC2)C2CCC(NC(=O)OC3CCS(=O)(=O)C3)CC2)c(C(=O)O)s1", "note": "(stereo partly drawn) [Compound 77, 5-(3,3-dimethyl-but-1-ynyl)-3-[[4-(1,1-dioxo-tetrahydro-1λ^6-thiophen-3-yloxycarbonylamino)-cyclohexyl]-(trans-4-methylcyclohexanecarbonyl)-amino]-thiophene-2-carboxylic acid]", "inhibition at 2 µM": 99.9},
      {"smiles": "CC(C)(C)C#Cc1cc(N(C(=O)[C@H]2CC[C@H](C)CC2)C2CCN(C(=O)O[C@@H]3CCCNC3)CC2)c(C(=O)O)s1", "note": "[Compound 52, 4-[[2-carboxy-5-(3,3-dimethyl-but-1-ynyl)-thiophen-3-yl]-(4-trans-methyl-cyclohexanecarbonyl)-amino]-piperidine-1-carboxylic acid piperidin-3-(R)-yl ester]", "inhibition at 2 µM": 93.5},
      {"smiles": "CC(C)(C)C#Cc1cc(N(C(=O)[C@H]2CC[C@H](C)CC2)[C@H]2CCN(C(=O)OC3(C)CCNC3)C2)c(C(=O)O)s1", "note": "(stereo partly drawn) [Compound 68, 3-(S)-[[2-Carboxy-5-(3,3-dimethyl-but-1-ynyl)-thiophen-3-yl]-(trans-4-methylcyclohexanecarbonyl)-amino]-pyrrolidine-1-carbocylic-acid-3-methyl-pyrrolidin-3-yl-ester]", "inhibition at 2 µM": 98.5},
      {"smiles": "CC1CCC(C(=O)N(c2cc(C#CC(C)(C)C)sc2C(=O)O)C2CCC(NN(C)c3ccc(Cl)nn3)CC2)CC1", "note": "(stereo not shown) [Compound 83, 3-[{4-[N′-(6-Chloro-pyridazin-3-yl)-N′-methyl-hydrazino]-cyclohexyl}-(4-methyl-cyclohexanecarbonyl)-amino]-5-(3,3-dimethyl-but-1-ynyl)-thiophene-2-carboxylic acid]", "inhibition at 2 µM": 99.9},
      {"smiles": "CC(C)(C)C#Cc1cc(N(C(=O)[C@H]2CC[C@H](C)CC2)C2CCN(C(=O)O[C@@H]3CCCN(C(=O)OC(C)(C)C)C3)CC2)c(C(=O)O)s1", "note": "[Compound 51, Boc protected 4-[[2-carboxy-5-(3,3-dimethyl-but-1-ynyl)-thiophen-3-yl]-(4-trans-methyl-cyclohexanecarbonyl)-amino]-piperidine-1-carboxylic acid piperidin-3-(R)-yl ester]", "inhibition at 2 µM": 85.5},
      {"smiles": "CC(C)(C)C#Cc1cc(N(C(=O)[C@H]2CC[C@H](C)CC2)C2CCN(C(=O)O[C@H]3CO[C@H]4OCC[C@H]43)CC2)c(C(=O)O)s1", "note": "[Compound 36, 4-[[2-carboxy-5-(3,3-dimethyl-but-1-ynyl)-thiophen-3-yl]-(4-methyl-cyclohexanecarbonyl)-amino]-piperidine-1-carboxylic acid hexahydro-furo[2,3-b]furan-3-(R)-yl ester]", "inhibition at 2 µM": 100},
      {"smiles": "CN(NC1CCC(N(c2cc(C#CC(C)(C)C)sc2C(=O)O)C(=O)[C@H]2CC[C@H](C)CC2)CC1)c1cnccn1", "note": "(stereo partly shown) [Compound 80, 5-(3,3-Dimethyl-but-1-ynyl)-3-{(4-methyl-cyclohexanecarbonyl)-[4-(N′-methyl-N′-pyrazin-2-yl-hydrazino)-cyclohexyl]-amino}-thiophene-2-carboxylic acid]", "inhibition at 2 µM": 99.8},
      {"smiles": "CC(C)(C)C#Cc1cc(N(C(=O)[C@H]2CC[C@H](C)CC2)C2CCN(C(=O)OC3(C)CCNC3)CC2)c(C(=O)O)s1", "note": "(stereo partly drawn) [Compound 72, 4-[[2-Carboxy-5-(3,3-dimethyl-but-1-ynyl)-thiophen-3-yl]-(trans-4-methyl-cyclohexanecarbonyl)-amino]-piperidine-1-carboxylic acid 3-methyl-pyrrolidin-3-yl ester]", "inhibition at 2 µM": 99.7},
      {"smiles": "CC(C)(C)C#Cc1cc(N(C(=O)[C@H]2CC[C@H](C)CC2)C2CCN(C(=O)O[C@@H]3CNC(=O)C3)CC2)c(C(=O)O)s1", "note": "[Compound 56, 4-[[2-carboxy-5-(3,3-dimethyl-but-1-ynyl)-thiophen-3-yl]-(4-trans-methyl-cyclohexanecarbonyl)-amino]-piperidine-1-carboxylic acid 5-oxo-pyrrolidin-3-(S)-yl ester]", "inhibition at 2 µM": 92.8},
      {"smiles": "CC(C)(C)C#Cc1cc(N(C(=O)[C@H]2CC[C@H](C)CC2)C2CCC(NC(=O)O[C@H]3CO[C@H]4OCC[C@H]43)CC2)c(C(=O)O)s1", "note": "(stereo partly drawn) [Compound 66, 5-(3,3-Dimethyl-but-ynyl)-3-[[4-(hexahydro-furo[2,3-b]furan-3-yloxycarbonylamino)-cyclohexyl]-(trans-4-methyl-cyclohexanecarbonyl)-amino]-thiophene-2-carboxylic acid]", "inhibition at 2 µM": 99.9},
      {"smiles": "CC(C)(C)C#Cc1cc(N(C(=O)[C@H]2CC[C@H](C)CC2)C2CCC(NC(=O)OC3CCOCC3)CC2)c(C(=O)O)s1", "note": "(stereo partly drawn) [Compound 32, 5-(3,3-dimethyl-but-1-ynyl)-3-{(4-trans-methyl-cyclohexanecarbonyl)-[4-(tetrahydro-pyran-4-yloxycarbonylamino)-cyclohexyl]-amino}-thiophene-2-carboxylic acid]", "inhibition at 2 µM": 100},
      {"smiles": "CC1CCC(C(=O)N(c2cc(C#CC(C)(C)C)sc2C(=O)O)C2CCC(=NOCc3ccc(S(C)(=O)=O)cc3)CC2)CC1", "note": "(stereo not shown) [Compound 121, 3-(N-(4-(4-(Methylsulfonyl)benzyloxyimino)cyclohexyl)-4-methylcyclohexanecarboxamido)-5-(3,3-dimethylbut-1-ynyl)thiophene-2-carboxylic acid]", "inhibition at 2 µM": 99.9},
      {"smiles": "CC(C)(C)C#Cc1cc(N(C(=O)[C@H]2CC[C@H](C)CC2)C2CCN(C(=O)OC3CCOCC3)CC2)c(C(=O)O)s1", "note": "[Compound 54, 4-[[2-carboxy-5-(3,3-dimethyl-but-1-ynyl)-thiophen-3-yl]-(4-trans-methyl-cyclohexanecarbonyl)-amino]-piperidine-1-carboxylic acid tetrahydro-pyran-4-yl ester]", "inhibition at 2 µM": 99.8},
      {"smiles": "CC(C)(C)C#Cc1cc(N(C(=O)[C@H]2CC[C@H](C)CC2)C2CCC(NC(=O)OC3(C)CCN(C(=O)OC(C)(C)C)C3)CC2)c(C(=O)O)s1", "note": "(stereo partly shown) [Compound 75]", "inhibition at 2 µM": 97.5}
    ]}
  ]
}
